In patent US20130040291A1, “Detection and Quantification of Cellular Stress Response Resolution Pathway Expression and Functionality and the Effects of Agents or Conditions Thereupon” (priority 2011, published 2013):

What was measured:
CDNR4 cells [1] = format: cell-based, murine
Protocol: Following the cessation of the calibrated stress conditions exposure, the SR assay raw data is collected in the form of positive and negative wells (or cell growth sites) and in the form of viable or dead cell clones. The next steps of the assay involve expanding viable clones and determining their phenotypes. When the phenotype of interest being investigated in the SR assay is cell survival, the clones can be sub-classified using the testing listed in Table 6. This testing is performed as follows. Clones are removed from the tissue culture vessels in which they were placed before the start of the calibrated stress conditions exposure (using methods appropriate for the cell type), and subdivided into 4 different aliquots. Each aliquot is re-plated in an appropriate tissue culture vessel in medium containing the following. For one aliquot, the medium is growth medium (conditioned medium may be used) only; for a second aliquot the medium is supplemented with guanosine or folic acid at a concentration sufficient to enhance the survival and expansion of HPRT^− clones; for a third aliquot, the medium contains the same level of agent as used for the calibrated stress condition exposure, and the fourth aliquot is placed in HAT-medium containing an amount of aminopterin that is sufficient to induce growth arrest and/or cell death in Phen-HPRT^− cells of the cell type of interest (see above). Cell morphology (where informative for cell behavior and/or gene expression) and cell growth are monitored over the next 2, to 4 days to determine the response of the cells to these differing conditions. Cell clones can be subjected to additional testing as desired to evaluate further endpoints of interest and/or can be cryopreserved for future evaluations.
To subgroup Phen-ah clones as Phen-alt-rev or Phen-alt-irr, a representative group of these clones is tested further by subjecting the clones to repeated rounds of exposure to the calibrated stress conditions. Other stress inducing agents also may be used. Each exposure cycle is followed by a period of time to allow the cells to recover, and thus, to resolve the stress environment. After each exposure round, the percentage of cells that are resistant to the stress inducing agent or condition is recorded. […] The parental cell response that has been used in the examples below is defined as greater than 99% sensitivity to the calibrated stress conditions agent or condition, as evidenced by cell cycle arrest and/or cell death following exposure to the SR induction agent. Other stress response endpoints may be used and will depend upon the nature of the stress inducing agent used; these endpoints are incorporated herein.
The murine mammary epithelial cells designated CDNR4 were grown in their preferred growth medium (42% DMEM, 42% Hams F-12, 12% FBS, 1% 100×L-glutamine, 1% pen-strep, 0.5% to 1% bovine pituitary extract) until approximately 6 million cells were available. Cells were removed from the expansion flasks, counted, and replated at a rate of 500,000 cells per […] flask in growth medium. The flasks were assigned randomly to one of two groups: a vehicle-alone exposure (control group); an ENU-exposure (treated) group. […] For group 1 flasks, a volume of growth medium equal to the volume of ENU was added to the flasks. The cells were exposed to this solution for 1 hour at 37° C.; at the end of this time the solution was removed, the cells were washed with PBS at 37° C., and the cells were re-fed with fresh growth medium.
At the end of 2 weeks, the cells were removed from the flasks with trypsin/EDTA and passed through a 20 to 25 micron pore size sterile Nytran filter. The cell suspension was evaluated by light microscopy for evidence of large clumps, and was re-filtered if necessary using a new sterile Nytran filter of the same size to remove any apparent large clumps of cells. […]

CDNR4 cells [2] = experiment: Determination of the SRID-50% level of 6-TG (calibrated stress conditions); format: cell-based, murine
Protocol: The calibrated stress conditions and the SRID-x % level are determined ideally using parental, control, or vehicle-exposed cells. This portion of the assay requires that several variables, including cell plating density, calibrated stress conditions level, and duration of stress conditions exposure be optimized simultaneously. These variables are interdependent such that each affects the outcome of the other, thereby making this portion of the assay one of the most critical. To achieve high sensitivity for detection of assay endpoints, it is important that the maximum number of cells be evaluated; however, optimal calibrated stress conditions are achieved at relatively low cell plating densities. In addition, cell plating densities and the SKID-x % level of stress inducing agent chosen for use in the assay must be such that fewer than one positive endpoint per well occurs in the assay. Using cell survival as an example, if multiple surviving cell clones are identified in the same well(s) during an experiment, then the cell plating density must be reduced and/or the SRID-x % level must be increased so that the frequency of occurrence of surviving clones is reduced to less than one per well. Thus, optimization of these variables is necessary.
Pilot studies that evaluate a range of cell plating densities and a range of calibrated stress conditions levels for the stress inducing agent of choice are used and are applied to untreated, control or parental cells. It is advisable to use a low plating density that results in rapid expression of stress resolution pathways (within 3 to 4 days where possible), or as quickly as possible after calibrated stress conditions exposure. In spite of potentially significant differences between cells of different types from different tissues and from different species, preliminary results from the SR assay support the conclusion that the optimal plating density for many cell types falls within a predictable range. […] These values can serve as starting points for empirical determination of the optimal cell plating density for the cells of interest to be used in the assay.
After estimating the optimal cell plating density, dose response curves are generated for the calibrated stress conditions agent of interest. For experiments in which cell survival is the phenotype of interest, work with the assay completed to date supports the conclusion that calibrated stress conditions levels that reduce expression of pro-survival pathways to a level that results in survival of one or fewer clones in 50% of the wells of a 96 well plate (defined as the SRID-50%) is the optimal level for assessment of damage avoidance pro-survival pathways. Use of these levels also results in a sufficiently robust expression of damage tolerance paths to make it possible to evaluate differences or changes in expression of these pathways between cell types and/or between differing exogenous exposures. Because cell plating density and level of calibrated stress inducing agent are inter-dependent, it may be necessary to perform several pilot studies using differing cell plating densities and a range of stress-response inducing levels to find the optimal combination of use with the cell type of interest in the assay.
There are two limits associated with Poisson distribution principles that must be considered in selecting the SRID-x % level of stress inducing agent. First, stress induction levels that result in a response frequency, for the response type of interest, that is near or equal to 100% of the sites being evaluated should be avoided and the same considerations are true for stress induction levels resulting in responses frequencies near or equal to 0%. The SR assay cannot accurately quantify response frequencies near 100% or near 0%, and this limitation forms the one of the factors affecting the selection of the SRID-x % level. […]

[3] = tested on: immortalized human bronchial epithelial cell line #1; experiment: Determination of the SRID-10% dose of 6-TG, cell line #1; format: cell-based; conditions: 600 to 1000 cells per well, 96 well plates
Protocol: (§1) Two immortalized, human bronchial epithelial cells lines were expanded in their preferred growth medium and plated at the rate of 600 to 1000 cells per well in tissue culture wells of 96 well plates. Both cell lines were immortalized using hTERT technology. The cells were exposed to variable 6-TG concentrations that ranged up to 150 micrograms/ml 6-TG. For cell line #1; the SRID-10% dose of 6-TG was determined to be 110 micrograms/ml; for cell line #2 the SRID-10% dose of 6-TG was determined to be 60 micrograms/ml 6-TG. The mCE of cell line #1 was 41%; for cell line #2 it was 25%. Thus, the total pro-survival pathway functionality for cell line #1 was […] (0.41×110 microgms/ml 6-TG); for cell line #2 this value was calculated to be 15.

[4] = tested on: immortalized human bronchial epithelial cell line #2; experiment: Determination of the SRID-10% dose of 6-TG, cell line #2; format: cell-based; conditions: 600 to 1000 cells per well, 96 well plates
Protocol: as §1

SMILES | death of the cells during SR induction phase (CDNR4 cells [1]; 6TG 30 micrograms/ml, one to 3 days after start, 600 cells per well) | cell death after the end of SR induction phase (CDNR4 cells [1]; two to 3 days after 4 days of 6TG 30 micrograms/ml, all plates) [%] | time to cell cycle arrest of all cells after start of 6-TG exposure (CDNR4 cells [2]; 6TG 1 to 100 micrograms/ml) [h] | SRID-50% (1 viable clone in approximately 50% of wells of a 96-well plate) (CDNR4 cells [2]; CDNR4 cells, low plating density, 6-TG for four days) [µg/mL] | SRID-50% (CDNR4 cells [2]; vehicle-exposed/parental CDNR4 cells, 500-600 cells per well of 96 well plate, 6-TG for four days) [micrograms/ml] | SRID-10% dose of 6-TG [3] [micrograms/ml] | SRID-10% dose of 6-TG [4] [micrograms/ml 6-TG] | SR assay results with MNU as pre-exposure agent in place of ENU (CDNR4 cells [1]; compared with the ENU experiments)
Nc1nc2nc[nH]c2c(=S)[nH]1 [6-TG, 6-thioguanine] | greater than 90% | ~100 | ≤ 24 | 35 | 35 | 110 | 60 | –
CN(N=O)C(N)=O [MNU, methylnitrosourea] | – | – | – | – | – | – | – | similar
